Assay: Water solubility in saturated aqueous solution (HPLC, one-point method)
Type: physicochemical
Details: for Water solubility: deionized water, 25° C.
Experimental: By measuring the solubility of compound in a saturated aqueous solution, the water solubility of the compound was further investigated.
Preparation of Supersaturated Solution:
(1) About 1 mg of the compound to be tested was weighed and added to a 25 mL tube;
(2) 5 mL of deionized water was added, shaken well, placed in a vortex shaker and mixed for 30 seconds, then treated ultrasonically for 30 seconds;
(3) The tube was placed in a constant temperature water bath, and allowed to stand in a constant temperature water bath at 25° C. for 1 hour;
(4) The operation of (2) was repeated, and the standing at constant temperature of 25° C. was continued for 1 hour;
(5) The prepared supersaturated solution supernatant was taken out and placed in a centrifuge tube, centrifuged at 15000 rpm for 5 minutes, and the upper centrifugate was taken out for later use.
Liquid Chromatography Method:
(1) Chromatographic column: Agilent XDB Eclipse C18, 25 cm×4.6 mm×5 μm liquid chromatography column.
(2) Mobile phase: Phase A: water (0.1% trifluoroacetic acid); Phase B: acetonitrile.
(3) Flow rate: 1.0 mL/min.
(4) Sampling volume: 10 μl.
Preparation of standard solution: 1.0 mg of the sample to be tested was accurately weighed, added to a 10 mL volumetric flask, dissolved in methanol as solvent, metered to a constant volume of 10 mL, the concentration of solution was calculated, and it was used as a standard solution for later use.
By using the one-point method, the chromatographic peak area of the standard solution of the sample to be tested was determined, and then the peak area of the supersaturated compound was determined, and the solubility of the compound to be tested in water was calculated accordingly.

| SMILES | water solubility, in words | Water solubility |
| --- | --- | --- |
| CN1CCN(c2ccc(-c3ccc4ncc5ccc(=O)n(-c6cccc(C(F)(F)F)c6)c5c4c3)cn2)CC1 [HTL-7-17, 9-{3-[6-(4-methylpiperazin-1-yl)pyridyl]}-2-oxo-1-[3-(trifluoromethyl)phenyl]-1,2-dihydrobenzo[h][1,6]naphthyridine] | relatively high water solubility | 18.64 µg/mL |
| COc1ccc(-c2ccc3ncc4ccc(=O)n(-c5cccc(C(F)(F)F)c5)c4c3c2)cn1 [HTL-7-03, 9-[3-(6-methoxy)pyridyl]-2-oxo-1-[3-(trifluoromethyl)phenyl]-1,2-dihydrobenzo[h][1,6]naphthyridine] | – | 0.61 µg/mL |
| O=c1ccc2cnc3ccc(-c4cccnc4F)cc3c2n1-c1cccc(C(F)(F)F)c1 [HTL-6-48, 9-[3-(2-fluoro)pyridyl]-2-oxo-1-[3-(trifluoromethyl)phenyl]-1,2-dihydrobenzo [h][1,6]naphthyridine] | relatively high water solubility | 5.88 µg/mL |
| CCC(=O)Nc1ccc(-c2ccc3ncc4ccc(=O)n(-c5cccc(C(F)(F)F)c5)c4c3c2)cn1 [HTL-6-45, 9-[3-(6-propionylamino)pyridyl]-2-oxo-1-[3-(trifluoromethyl)phenyl]-1,2-dihydrobenzo[h][1,6]naphthyridine] | – | 0.39 µg/mL |
| O=c1ccc2cnc3ccc(-c4ccc(F)nc4)cc3c2n1-c1cccc(C(F)(F)F)c1 [HTL-7-01, 9-[3-(6-fluoro)pyridyl]-2-oxo-1-[3-(trifluoromethyl)phenyl]-1,2-dihydrobenzo[h][1,6]naphthyridine] | – | 0.42 µg/mL |

Source: US20220220106A1, “QUINOLINE COMPOUNDS AND PHARMACEUTICAL COMPOSITIONS AND USES THEREOF” (Academy of Military Medical Sciences, priority 2019, published 2022)
